The values that follow come from patent US5178877A, “Encapsulated renin inhibitor composition” (priority 1991, dated 1993).

A short description of series [1]: Oral bioavailability studies in fasted dogs. To be noted: dog, in vivo. How it is done:
The following compositions comprising compound I were prepared and the bioavailability of each composition was determined in fasted dogs. Dogs (beagle dogs, mixed sexes, weighing about 10 kg) were fasted for at least 12 hours before dosing. Food was returned after the last blood sample was collected (24 hours). Water was available at all times. A dose equivalent to 50 or 100 milligrams of compound I was administered by mouth to each dog, followed with either 20 or 50 ml of water, respectively, through a feeding tube. […] Blood samples of 3 ml volume were anti-coagulated with EDTA. The plasma was separated by centrifugation and frozen until analyzed. Blood plasma concentrations of compound I were determined by HPLC. Bioavailability was calculated as follows: % Bioavailability=[(AUC)oral×D/(AUC)intravenous]×100. (AUC)oral and (AUC)intravenous are the areas under the curve for the plasma concentration-time profiles following oral and intravenous administration, respectively. D is a correlation factor for the difference between intravenous administration (3 mg/kg) and oral administration (about 10 mg/kg).

Another series deals with salt depleted dogs. The series can be described thus: Blood pressure lowering in salt depleted dogs. Type of series: in vivo, dog. To be noted: after oral or intravenous administration.

Regarding `CC(C)C[C@H](O)[C@H](O)[C@H](CC1CCCCC1)NC(=O)[C@H](Cc1cscn1)NC(=O)[C@H](Cc1ccccc1)CS(=O)(=O)N1CCN(C)CC1` [compound I, (2S)-2-Benzyl-3-(1-methyl-piperazin-4-ylsulfonyl)propionyl-(L)-(4-Thiazolyl)Ala Amide of (2S, 3R, 4S)-2-Amino-1-cyclohexyl-3,4-dihydroxy-6-methylheptane], the “times more bioavailable as soft elastic gelatin encapsulated solution compared to standard solid capsule or tablet compositions” value in series [1] was 2.1-5.2 times. In the series on salt depleted dogs, the blood pressure result is reported as “reduces blood pressure”.
